Test results published in US6610523B1, “Cytokine-, stress-, and oncoprotein-activated human protein kinase kinases” (University of Massachusetts, priority 1995, dated 2003).
Where a chain is given by its changes, count along the chain named.

Experiments:
Assay type in all cases: cell-based
[1] = test system: JNK1; assay: Immunecomplex protein kinase assay of JNK1 from treated HeLa cells, ATF2 as substrate; conditions: for JNK1 activation (in words): PMA 10 nM, EGF 10 nM, sorbitol 300 mM, interleukin-1 10 ng/ml, TNFα 10 ng/ml; for Relative Protein Kinase Activity JNK: control = 1.0
Experimental: (§1) The effect of phorbol ester, EGF, UV radiation, osmotic stress, IL-1, tumor necrosis factor (TNF), and LPS on p38 MAP kinase and JNK1 activity were measured in immunecomplex protein kinase assays using ATP [γ-^32P] and ATF2 as substrates. TNFα and IL-1α were from Genzyme Corp. Lipolysaccharide (LPS) was isolated from lyophilized Salmonella minesota Re595 bacteria as described (Mathison et a. (1988) J. Clin. Invest. 81:1925). Phorbol myristate acetate was from Sigma. EGF was purified from mouse salivary glands (Davis (1988) J. Biol. Chem. 263:9462). Kinase assays were performed using immunoprecipitates of p38 and JNK. The immunocomplexes were washed twice with kinase buffer (described above), and the assays initiated by the addition of 1 μg of ATF2 and 50 μM [γ-^32P]ATP (10 Ci/mmol) in a final volume of 25 μl. The reactions were terminated after 30 minutes at 30° C. by addition of Laemmli sample buffer. The phosphorylation of ATF2 was examined after SDS-PAGE by autoradiography, and the rate of ATF2 phosphorylation quantitated by PhosphorImager analysis. […]

[2] = test system: p38 MAP kinase; assay: Immunecomplex protein kinase assay of p38 MAP kinase from treated HeLa cells, ATF2 as substrate; conditions: for p38 activation (in words): PMA 10 nM, EGF 10 nM, sorbitol 300 mM, interleukin-1 10 ng/ml, TNFα 10 ng/ml; for Relative Protein Kinase Activity p38: control = 1.0
Experimental: as §1

[3] = test system: JNK1; assay: JNK1 immunecomplex kinase assay (c-Jun substrate) in CHO cells expressing epitope-tagged JNK1 after osmotic shock
Experimental: CHO cells were co-transfected with the plasmid pCMV-Flag-Jnk1 and pRSV-Neo (Dérijard et al. (1994) supra) . A stable cell line expressing epitope-tagged Jnk1 (Flag; Immunex Corp.) was isolated by selection with Geneticin (Gibco-BRL). The cells were incubated with 0, 100, 150, 300, 600, or 1000 mM sorbitol for 1 hour at 37° C. The cells were collected in lysis buffer (20 mM Tris, pH 7.4, 1% TRITON® X-100, 2 mM EDTA, 137 mM NaCl, 25 mM β-glycerophosphate, 1 mM orthovanadate, 2 mM pyrophosphate, 10% glycerol, 1 mM phenylmethylsulfonyl fluoride, 10 μg/ml leupeptin) and a soluble extract was obtained by centrifugation at 100,000 g for 30 minutes at […]. The epitope-tagged JNK1 was isolated by immunoprecipitation with the monoclonal antibody M2 (Immunex Corp.). The immunoprecipitates were washed extensively with lysis buffer. Immunecomplex kinase assays were done in 25 μl of 25 mM Hepes, pH 7.4, 25 mM MgCl2, 25 mM β-glycerophosphate, 2 mM dithiothreitol, 100 AM orthovanadate, and 50 AM ATP [γ-^32P] (10 Ci/mmole) with 2.5 μg of bacterially expressed c-Jun (residues 1-79) fused to glutathione-S-transferase (GST) as a substrate. The phosphorylation of c-Jun was examined after SDS-PAGE by autoradiography and PhosphorImager (Molecular Dynamics Inc.) analysis.
The time course of JNK1 protein kinase activation was measured in cells incubated in medium supplemented with 300 mM sorbitol as described above. Increased JNK1 activity was observed within 5 minutes of exposure to sorbitol, with maximum activity occurring after 15-30 minutes.

[4] = test system: p38 MAP kinase; assay: p38 MAP kinase immunecomplex assay (ATF2 substrate) in transfected COS-1 cells; conditions: COS-1 cells transfected with epitope-tagged p38; 10 nM EGF
Experimental: COS-1 cells were transfected with epitope-tagged p38 MAP kinase, together with an empty expression vector or an expression vector encoding MEK1, MKK3, or MKK4α. Some of the cultures were exposed to UV radiation (40 J/m^2) or treated with 10 nM EGF. p38 MAP kinase was isolated by immunoprecipitation with M2 monoclonal antibody, and the protein kinase activity was measured in the immunecomplex with [γ-^32P]ATP and ATF2 as substrates. The product of the phosphorylation reaction was visualized after SDS-PAGE by autoradiography. […] MKK3 and MKK4 phosphorylation of ATF2 was similar to that seen with p38 MAP kinase isolated from UV-irradiated cells.

[5] = test system: ATF2; assay: Electrophoretic mobility of ATF2 by immuno-blot in JNK1-transfected CHO cells; conditions: IL-1α 10 ng/ml or fetal bovine serum 20%, 30 minutes at 37° C.
Experimental: CHO cells were maintained in Ham's F12 medium supplemented with 5% […] (Gibco-BRL). Cells were labeled and transfected with JNK1 as described above. CHO cells were treated with UV-C (40 J/m^2), IL-1α (10 ng/ml) (Genzyme), or fetal bovine serum (20%) (Gibco-BRL). The cells were incubated for 30 minutes at 37° C. prior to harvesting. The electrophoretic mobility of ATF2 after SDS-PAGE was examined by protein immuno-blot analysis.

[6] = test system: JNK1; assay: Immunecomplex protein kinase assay of JNK1 from CHO cells that express human CD14, ATF2 as substrate
Experimental: (§2) The effect of phorbol ester, EGF, UV radiation, osmotic stress, IL-1, tumor necrosis factor (TNF), and LPS on p38 MAP kinase and JNK1 activity were measured in immunecomplex protein kinase assays using ATP [γ-^32P] and ATF2 as substrates. TNFα and IL-1α were from Genzyme Corp. Lipolysaccharide (LPS) was isolated from lyophilized Salmonella minesota Re595 bacteria as described (Mathison et a. (1988) J. Clin. Invest. 81:1925). Phorbol myristate acetate was from Sigma. EGF was purified from mouse salivary glands (Davis (1988) J. Biol. Chem. 263:9462). Kinase assays were performed using immunoprecipitates of p38 and JNK. The immunocomplexes were washed twice with kinase buffer (described above), and the assays initiated by the addition of 1 μg of ATF2 and 50 μM [γ-^32P]ATP (10 Ci/mmol) in a final volume of 25 μl. The reactions were terminated after 30 minutes at 30° C. by addition of Laemmli sample buffer. The phosphorylation of ATF2 was examined after SDS-PAGE by autoradiography, and the rate of ATF2 phosphorylation quantitated by PhosphorImager analysis.
(§3) The effect of LPS on the activity of p38 was examined using CHO cells that express human CD14.

[7] = test system: p38 MAP kinase; assay: Immunecomplex protein kinase assay of p38 MAP kinase from CHO cells that express human CD14, ATF2 as substrate
Experimental: as §2, §3

[8] = test system: reporter plasmid pG5E1bLuc (GAL4 sites, firefly luciferase gene); assay: GAL4-ATF2 fusion protein co-transfection assay with luciferase reporter plasmid pG5E1bLuc in CHO cells; conditions: luciferase and β-galactosidase mean activity ratio of three experiments
Experimental: A fusion protein consisting of ATF2 and the GAL4 DNA binding domain was expressed in CHO cells as described above. The activity of the GAL4-ATF2 fusion protein was measured in co-transfection assays with the reporter plasmid pG5E1bLuc (Seth et al. (1992) J. Biol. Chem. 267:24796, hereby specifically incorporated by reference). The reporter plasmid contains five GAL4 sites cloned upstream of a minimal promoter element and the firefly luciferase gene. Transfection efficiency was monitored with a control plasmid that expresses β-galactosidase (pCH110; Pharmacia-LKB Biotechnology). The luciferase and β-galactosidase activity detected in cell extracts was measured as the mean activity ratio of three experiments (Gupta et al. (1993) Proc. Natl. Acad. Sci. USA 90:3216, hereby specifically incorporated by reference).

[9] = CHO cells that express human CD14, 10 ng/ml, control = 1.0

## CCCCCCCCCCCCCC(=O)O[C@@H]1[C@@H](C)[C@@]2(O)[C@@H](C=C(CO)C[C@]3(O)C(=O)C(C)=C[C@@H]23)[C@@H]2C(C)(C)[C@]12OC(C)=O [Phorbol Ester, Phorbol myristate acetate]
[1]
  JNK1 activation (in words): very weakly activated
  Relative Protein Kinase Activity JNK: 2.3
[2]
  p38 activation (in words): very weakly activated
  Relative Protein Kinase Activity p38: 2.9

## OC[C@@H](O)[C@@H](O)[C@H](O)[C@@H](O)CO [sorbitol]
[1]
  JNK1 activation (in words): strongly activated
  Relative Protein Kinase Activity JNK: 18.1
[2]
  p38 activation (in words): strongly activated
  Relative Protein Kinase Activity p38: 4.2
[3]; 300 mM sorbitol
  time of maximum JNK1 activity: 15 to 30 min
  time to increased JNK1 activity: ≤ 5 min
[3]; 100, 150, 300, 600 or 1000 mM sorbitol, 1 hour at 37° C.
  JNK1 activation (in words): JNK1 activation was observed at all concentrations

## Epidermal Growth Factor: EGF purified from mouse salivary glands
[1]
  JNK1 activation (in words): only weakly activated
  Relative Protein Kinase Activity JNK: 1.9
[2]
  p38 activation (in words): only weakly activated
  Relative Protein Kinase Activity p38: 2.1
[4]
  ATF2 phosphorylation by p38 MAP kinase isolated from treated cells (in words): not phosphorylated

## Interleukin-1: IL-1α from Genzyme Corp., pro-inflammatory cytokine
[1]
  JNK1 activation (in words): strongly activated
  Relative Protein Kinase Activity JNK: 8.9
[2]
  p38 activation (in words): strongly activated
  Relative Protein Kinase Activity p38: 6.2
[5]
  shift in ATF2 electrophoretic mobility (in words): A shift in ATF2 electrophoretic mobility was observed

## Lipopolysaccharide
[6]; [9]
  Relative Protein Kinase Activity JNK: 3.6
[6]; CHO cells, 10 ng/ml LPS
  JNK1 activation (in words): only slightly activated
[7]; [9]
  Relative Protein Kinase Activity p38: 3.7
[7]; CHO cells, 10 ng/ml LPS
  p38 activation (in words): only slightly activated

## Tumor Necrosis Factor
[1]
  JNK1 activation (in words): strongly activated
  Relative Protein Kinase Activity JNK: 19.3
[2]
  p38 activation (in words): strongly activated
  Relative Protein Kinase Activity p38: 10.3

B1: GAL4-ATF2 (Ala^69.71): GAL4-ATF2 fusion protein with Thr69 and Thr71 replaced with Ala (protein)
chain: MKLLSSIEQACDICRLKKLKCSKEKPKCAKCLKNNWECRYSPKTKRSPLTRAHLTEVESRLERLEQLFLLIFPREDLDMILKMDSLQDIKALLTGLFVQDNVNKDAVTDRLASVETDMPLTLRQHRISATSSSEESSNKGQRQLTVSMKFKLHVNSARQYKDLWNMSDDKPFLCTAPGCGQRFTNEDHLAVHKHKHEMTLKFGPARNDSVIVADQAPAPTRFLKNCEEVGLFNELASPFENEFKKASEDDIKKMPLDLSPLATPIIRSKIEEPSVVETTHQDSPLPHPESTTSDEKEVPLAQTAQPTSAIVRPASLQVPNVLLTSSDSSVIIQQAVPSPTSSTVITQAPSSNRPIVPVPGPFPLLLHLPNGQTMPVAIPASITSSNVHVPAAVPLVRPVTMVPSVPGIPGPSSPQPVQSEAKMRLKAALTQQHPPVTNGDTVKGHGSGLVRTQSEESRPQSLQQPATSTTETPASPAHTTPQTQSTSGRRRRAANEDPDEKRRKFLERNRAAASRCRQKRKVWVQSLEKKAEDLSSLNGQLQSEVTLLRNEVAQLKQLLLAHKDCPVTAMQKKSGYHTADKDDSSEDISVPSSPHTEAIQHSSVSTSNGVSSTSKAEAVATSVLTQMADQSTEPALSQIVMAPSSQSQPSGS
[8]
  LUCIFERASE ACTIVITY: 29,000 Light Units/OD

B2: GAL4-ATF2 (wild type): fusion protein consisting of ATF2 and the GAL4 DNA binding domain, wild-type Thr69,71 (protein)
chain: B1 chain with A216T, A218T
[8]
  LUCIFERASE ACTIVITY: 320,000 Light Units/OD
